The text below walks through data of ChEMBL document CHEMBL3822396 (J Med Chem, 2016).

As a reminder, the Cmax is the peak of the concentration-time curve. One may read the AUC as concentration integrated over time. Low values mean less exposure, high ones more exposure. The IC50 is the point on the concentration scale where inhibition reaches its midpoint. Higher therefore signals lower potency.

A short description of series [1]: Permeability of the compound. The class given is ADME. The conditions noted are these: not told; read-out: permeability.
Series [2] in a line: Cmax in Sprague-Dawley rat at 2 mg/kg, po administered through cassette dosing as by LC-MS/MS analysis. The class given is ADME, organism-based. The arrangement: dose 2 mg/kg, route oral. The conditions noted are these: in vivo.
The nature of series [3]: AUC in Sprague-Dawley rat at 2 mg/kg, po administered through cassette dosing by LC-MS/MS analysis. The conditions noted are these: in vivo. The class given is ADME, organism-based.
The target in series [4] is Mitogen-activated protein kinase 14 (Homo sapiens, UniProt Q16539).
Series [5] addresses Vascular endothelial growth factor receptor 2 (Homo sapiens, UniProt P35968).
Series [6] has as its system Intestinal mucosa. Kind of series: Inhibition of TNFalpha production in intestinal mucosa derived from Crohn's disease patient at 1 uM measured after 24 hrs by sandwich ELISA. The class given is functional, tissue-based. The conditions noted are these: Homo sapiens.
Series [7] deals with Intestinal mucosa. Kind of series: Inhibition of IL6 production in intestinal mucosa derived from Crohn's disease patient at 1 uM measured after 24 hrs by sandwich ELISA. The conditions noted are these: Homo sapiens. The class given is functional, tissue-based. A general note: In an ELISA, binding on a coated surface is turned into a signal by an enzyme label.
In series [8] the test system is Intestinal mucosa. As to the kind of experiment: Inhibition of TNFalpha production in intestinal mucosa derived from ulcerative colitis patient at 1 uM measured after 24 hrs by sandwich ELISA. The class given is functional, tissue-based. The conditions noted are these: Homo sapiens.
In series [9] the test system is Intestinal mucosa. Kind of series: Inhibition of IL6 production in intestinal mucosa derived from ulcerative colitis patient at 1 uM measured after 24 hrs by sandwich ELISA. The class given is functional, tissue-based. The conditions noted are these: Homo sapiens.

Activity calls are given as the source filed them. The calls are words filed in the database; no cut-off is given here.

Sequence of Vascular endothelial growth factor receptor 2 (P35968 whole entry): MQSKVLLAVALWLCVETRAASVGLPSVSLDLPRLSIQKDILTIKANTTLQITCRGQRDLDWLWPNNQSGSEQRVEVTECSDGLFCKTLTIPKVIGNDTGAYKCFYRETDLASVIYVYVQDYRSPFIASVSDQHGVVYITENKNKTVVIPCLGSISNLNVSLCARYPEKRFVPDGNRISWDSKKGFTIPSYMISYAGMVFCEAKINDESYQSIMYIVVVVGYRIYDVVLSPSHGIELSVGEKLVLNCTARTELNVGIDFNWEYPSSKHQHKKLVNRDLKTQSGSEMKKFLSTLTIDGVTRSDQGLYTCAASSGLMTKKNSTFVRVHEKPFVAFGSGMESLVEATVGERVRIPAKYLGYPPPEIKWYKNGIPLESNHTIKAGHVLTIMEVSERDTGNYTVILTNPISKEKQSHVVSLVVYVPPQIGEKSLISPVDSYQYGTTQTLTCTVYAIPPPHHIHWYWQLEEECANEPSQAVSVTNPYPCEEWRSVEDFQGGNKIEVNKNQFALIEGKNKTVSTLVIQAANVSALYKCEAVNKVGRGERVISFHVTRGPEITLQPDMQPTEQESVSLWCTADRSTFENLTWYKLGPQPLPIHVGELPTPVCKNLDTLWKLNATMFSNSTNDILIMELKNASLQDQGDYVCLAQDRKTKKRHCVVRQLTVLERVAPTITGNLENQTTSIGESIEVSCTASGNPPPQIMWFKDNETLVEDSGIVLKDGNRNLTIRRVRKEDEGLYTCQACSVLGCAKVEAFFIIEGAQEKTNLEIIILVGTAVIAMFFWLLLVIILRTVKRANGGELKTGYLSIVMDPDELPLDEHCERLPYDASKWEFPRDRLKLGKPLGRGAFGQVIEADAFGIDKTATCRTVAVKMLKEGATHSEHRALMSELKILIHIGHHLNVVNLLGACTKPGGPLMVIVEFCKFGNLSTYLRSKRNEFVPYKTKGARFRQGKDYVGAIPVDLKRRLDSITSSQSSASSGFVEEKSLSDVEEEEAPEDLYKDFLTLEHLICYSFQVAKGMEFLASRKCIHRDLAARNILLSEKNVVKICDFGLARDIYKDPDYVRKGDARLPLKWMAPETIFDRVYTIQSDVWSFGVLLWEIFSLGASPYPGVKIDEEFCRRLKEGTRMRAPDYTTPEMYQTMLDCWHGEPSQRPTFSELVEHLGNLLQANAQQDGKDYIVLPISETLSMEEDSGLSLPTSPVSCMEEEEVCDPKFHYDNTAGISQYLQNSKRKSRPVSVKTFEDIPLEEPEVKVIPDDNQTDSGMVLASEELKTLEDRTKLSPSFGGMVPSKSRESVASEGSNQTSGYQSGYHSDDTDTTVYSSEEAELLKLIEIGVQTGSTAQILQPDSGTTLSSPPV
Sequence of Mitogen-activated protein kinase 14 (Q16539 whole entry): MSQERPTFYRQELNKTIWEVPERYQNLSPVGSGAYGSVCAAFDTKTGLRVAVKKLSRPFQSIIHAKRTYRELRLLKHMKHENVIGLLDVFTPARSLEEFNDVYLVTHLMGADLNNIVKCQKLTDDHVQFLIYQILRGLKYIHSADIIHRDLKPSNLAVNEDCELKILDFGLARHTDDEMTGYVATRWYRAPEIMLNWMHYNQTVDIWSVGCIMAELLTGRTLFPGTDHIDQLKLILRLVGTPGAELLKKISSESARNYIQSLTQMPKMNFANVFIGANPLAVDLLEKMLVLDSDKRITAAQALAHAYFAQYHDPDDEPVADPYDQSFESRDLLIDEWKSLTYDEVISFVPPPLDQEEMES

For `Cc1ccc(O)cc1Nc1ccnc2ccc(-c3cccnc3)cc12`, in series [1], the Papp was determined as 23 ×10⁻⁶ cm/s.
Turning to `CC(C)S(=O)(=O)c1ccc2nccc(Nc3n[nH]c4ccc(F)cc34)c2c1`, the Cmax in series [2] worked out at 370 ng/mL. The same compound yielded an AUC in [3] of 1100 ng·h/mL. Moreover, the IC50 in series [4] and in series [5] was above 5 µM in each case.
As for `COc1ccc2nccc(Nc3cc(O)ccc3C)c2c1`, the Papp in [1] amounted to 23 ×10⁻⁶ cm/s.
Still for that read-out and setting: the value for `Cc1ccc(O)cc1Nc1ccnc2ccc(C(F)(F)F)cc12` was 49 ×10⁻⁶ cm/s; that for `Cc1ccc(O)cc1Nc1ccnc2ccc(S(C)(=O)=O)cc12` [GW559768X] was 7.9 ×10⁻⁶ cm/s.
As to `CS(=O)(=O)c1ccc2nccc(Nc3n[nH]c4ccc(F)cc34)c2c1`, in series [2], the Cmax is 500 ng/mL. The compound further showed an AUC in series [3] of 1700 ng·h/mL.
Regarding `Cc1ccc(O)cc1Nc1ccnc2ccccc12`, the Papp in [1] was 25 ×10⁻⁶ cm/s.
Turning to `C[C@]12C=CC(=O)C=C1CC[C@@H]1[C@@H]2[C@@H](O)C[C@@]2(C)[C@H]1CC[C@]2(O)C(=O)CO`, the inhibition result in the series with Intestinal mucosa [6], in the series with Intestinal mucosa [7], in the series on Intestinal mucosa [8] and with Intestinal mucosa [9] was “Active” in each case.
With `Cc1ccc(O)cc1Nc1ccnc2ccc(C(=O)NCC3CCOCC3)cc12`, in [1], the Papp is 1.5 ×10⁻⁶ cm/s. In addition, the IC50 in [4] and in [5] was above 5 µM each time.
